In patent US11279708B2, “Amidino- and amino-rocaglates as novel translation inhibitors and anticancer agents” (priority 2019, dated 2022):

Key:
[1] = tested on: eIF4A-dependent translation; experiment: in vitro translation assay, bicistronic FF/HCV/Ren reporter mRNA in Krebs-2 extracts; format: biochemical; conditions: screen at 2 μM compound
Method: Structure-Activity Relationships. With a number of amidino-rocaglates and amino-rocaglates in hand, we evaluated their inhibition of eIF4A-dependent translation using an in vitro assay as depicted in FIG. 14, where a bicistronic reporter mRNA was designed for translation in Krebs-2 extracts. In FIG. 14 the following description applies (a) IC50 was determined from fitted sigmoid curves; […] indicates the concentration of compound that inhibits cap-dependent translation by 50%, which was normalized by cap-independent translation. For its determination, the bicistronic reporter FF/HCV/Ren mRNA was used to produce Firefly luciferase (cap-dependent) and Renilla luciferase (cap-independent) in Krebs-2 extracts in the presence of indicated compounds at various concentrations. In particular, translation of Firefly luciferase (FF) is cap-dependent and depends on eIF4A activity; in contrast, translation of Renilla luciferase (REN) utilizes the HCV internal ribosome entry site (IRES) which functions independently of eIF4A. IC50's were determined by the inhibition of FF relative to REN obtained in the presence of compound relative to vehicle controls and normalized to REN as an internal control. […] In accordance with the eIF4A-RNA-rocaglamide (2) co-crystallographic analysis (FIG. 4), the amide carbonyl of 2 interacts with Gln195 of eIF4A as a H-bond acceptor, while the tertiary hydroxyl of 2 serves as a H-bond donor to an RNA base. […] To further verify the hypothesis, amidino-rocaglates (pKa of N—H˜26.7-30.7 in DMSO, strong H-bond donors) and amino-rocaglates (pKa of N—H˜36 to 44 in DMSO, weak H-bond donors) were next evaluated. […] Conversely, benzyl amidine 9e had IC50=60 nM, whereas the methylene tether may allow conformational adjustment to avoid rigid repulsion in the binding pocket.
The rocaglate collection was also tested in in vitro translation assays using cell-free extracts with a previously described bicistronic mRNA containing the HCV IRES, which is not dependent on eIF4A activity and served as an internal control (FIG. 19C).
In Vitro Translation Assays. In vitro translation assays performed in Krebs-2 cell extracts were supplemented with 5 mM MgCl2, 30 mM Tris-HCl (pH 7.5), 1.5 mM ATP, 0.1 mM GTP, 0.6 mM CTP, 10 mM dipotassium creatine phosphate, 80 μg/mL creatine kinase, and 0.04 mM amino acids. The specified mRNA reporters were added to each reaction at a final concentration of 10 ng/μL. The translation reactions were incubated with or without compound for 60 minutes at 30° C. prior to the measurement of luciferase activities.
FIGS. 19A-19C. Rocaglate activity profiling. 19A. Assessing eIF4A1:poly r(AG)8 (SEQ ID NO: 2) RNA binding by FP in the presence of 10 μM rocaglate. Values are expressed relative to vehicle controls and data is rank ordered. n=3±SD. 19B. The change in polarization obtained with eIF4A1:poly r(AG)8 (SEQ ID NO: 2) and eIF4A2:poly r(AG)8 (SEQ ID NO: 2) RNA. Pearson r=0.814; p<0.0001. 19C. Inhibition of cap-dependent translation by rocaglates was measured using the indicated mRNA bicistronic reporter (4 ng/ul) in Krebs-2 extracts at a final compound concentration of 2 μM. n=3±SD.
FIG. 35A-35E are plots showing dose-response curve of FF-HCV-Ren mRNA translation in Krebs extracts with IC50s shown for inhibition of cap-dependent protein synthesis. Values are plotted relative to DMSO controls. n=2 technical replicates performed in duplicate.

NIH/3T3 cells = experiment: Sulforhodamine B (SRB) cytotoxicity assay; format: cell-based; conditions: 40 nM, 4 days
Method: In cellula activity of rocaglates. All compounds in the rocaglate collection were assessed for cytotoxic activity towards NIH/3T3 cells as well as the rocaglate-resistant line, eIF4A^em1JP, which harbors an F163L mutation in eIF4A1. This mutation was originally identified following selection for RocA-resistant yeast mutants and F163 was subsequently shown to be critical for stacking with ring C of RocA (2) (FIG. 4). Although eIF4A2 is also a target of rocaglates, eIF4A1 F163L is sufficient to confer resistance to rocaglate-induced translation inhibition and cytotoxicity, likely due to eIF4A1 being the more abundant isoform in NIH/3T3 cells (250-fold higher). […] Lastly, although effective at inhibiting cap-dependent translation in vitro, WGD-57-591 (no activity @ 40 nM) and WGD-57-590 (12% growth inhibition @ 40 nM) performed poorly in this assay.
Sulforhodamine B (SRB) assay. NIH/3T3 cells were seeded at a density of 1000 cells/well in a 96 well format and incubated in presence of each 40 nM compound. After 4 days of culture, cells were washed with PBS, fixed with 50% trichloroacetic (TCA) acid for 1 hour, and then stained with 0.5% sulforhodamine B in 1% acetic acid for 15 min. Plates were then washed 5 times with 1% acetic acid, dried, and the stained wells were resuspended with 10 mM Tris (pH 9) prior to measuring the absorbance at 510 nm using (Spectramax M5, Molecular Devices)
FIGS. 26A-26B. In cellula activity of rocaglates. 26A. Cytotoxicity of rocaglates towards NIH/3T3 (grey circle) and the NIH/3T3 rocaglate-resistant line, eIF4A^em1JP(redtriangle). Cells were exposed to 40 nM compound for 4 days and viability was measured using the SRB assay. n=3±SD. 26B. Rocaglates show different sequence preferences for inhibiting cap-dependent translation in cellula. HEK 293 cells were transfected with 0.5 μg of in vitro synthesized capped (AG)10-FF/HCV/Ren or (UC)10-FF/HCV/Ren mRNA and 1h later exposed to the indicated concentrations of compounds for an additional 6 h, at which time extracts were prepared and luciferase activity measured. n=3 SD.

[2] = tested on: MDA-MB-231 breast cancer cells; experiment: SRB cell viability assay; format: cell-based; conditions: MDA-MB-231, SRB assay; read-out: IC50, cytotoxicity
Excerpt: Translation Inhibition by Amidino-Rocaglates Induces Cytotoxicity. We next evaluated amidino-rocaglates in an SRB cell viability assay using MDA-MB-231 breast cancer cells for cellular readout of translation inhibition (FIG. 16). In particular, (−)-9b, (−)-9aa, and (+)-9aa were compared with rocaglate hydroxamate (−)-23. […] The inspiring high-potency of amidino-rocaglates underscores their utility as promising agents for anticancer treatment combined with the appropriate formulation and drug-delivery strategies. […] Meanwhile, amide carbonyls of 9z and 9aa served as H-bond acceptors likely improving interactions with Gln195 of eIF4A, although this awaits structural confirmation. […] Our studies further illustrate the power of chemical synthesis enabling structural and biological improvement of complex natural products using targeted modifications. Additional biological studies of amidino-, amino-rocaglates, and related compounds including RNA binding studies are currently in progress and will be reported in due course.

| SMILES | inhibition of cap-dependent translation in vitro (in words) [1] | rank among the top 15 cytotoxic rocaglates (NIH/3T3 cells) [th] | IC50 [2] [nM] |
| --- | --- | --- | --- |
| COC(=O)[C@@H]1[C@@H](c2ccccc2)[C@]2(c3ccc(OC)cc3)Oc3cc(OC)cc(OC)c3[C@@]23NC(C2CC2)=N[C@@]13O [9n] | comparable potency to SDS-1-021 | 15 |  |
| COC(=O)[C@@H]1[C@@H](c2ccccc2)[C@]2(c3ccc(OC)cc3)Oc3cc(OC)cc(OC)c3[C@@]23N=C(C)N[C@@]13O [(−)-9b] |  |  | 3.5 |
